The results in this text go back to patent US20150359794A1, “IMPAIRMENT OF THE LARGE RIBOSOMAL SUBUNIT PROTEIN RPL24 BY DEPLETION OR ACETYLATION” (Buck Institute for Research on Aging, priority 2014, published 2015).

In one data set the test system is ribosomal proteins. Kind of data set: Mass spectrometry of acetylated ribosomal proteins in polysome pellets. Type of data set: cell-based, human. As to conditions: SKBR3 cells, TSA 1 μM, 2 h or 6 h. As to the method: Previous studies have shown that pan-inhibitors of class I and II histone deacetylases, like TSA, can rapidly destabilize a number of oncogenic transcripts including HER2 in a cycloheximide-dependent manner (FIG. 9). […] Thus, SKBR3 cells were treated with TSA to evaluate polysome protein acetylation and determine if, similar to RPL24 depletion, histone deacetylase inhibition can affect ribosome assembly dynamics. To detect early (2 h) ribosome or polysome acetylation following histone deacetylase inhibition treatment (1 μM TSA), SKBR3 polysomes were isolated using a discontinuous sucrose gradient as previously described. […]
To prepare polysome samples for mass spectrometry, cells are treated with a histone deacetylase inhibitor and polysome pellets are prepared using a discontinuous sucrose gradient as described above. Protein concentration is determined using the Pierce BCA Protein Assay Kit (Thermo Scientific) and equal amount of protein are trypsin digested. […]
Three biological replicates of polysome or 60S samples are then analyzed by LC-MS/MS using a quadrupole time-of-flight (QqTOF) TripleTOF 5600 mass spectrometer (AB SCIEX, Dublin, Calif.) coupled to an Eksigent (Dublin, Calif.) nanoLC Ultra, 2D plus. […] Quantitative data analysis of acetyl-lysine peptides is performed by integration of selected molecular ion intensities using Skyline MS1 Filtering as previously described. […]

The next data set relates to RPL24. Kind of data set: LC-MS/MS of RPL24 lysine acetylation (K27, K93) on 60S subunits and polysomes. Type of data set: cell-based, human. As to conditions: SKBR3 cells, TSA 1 μM, 2 h. As to the method:
Mass spectrometry studies were performed to identify sites of lysine (K) acetylation within RPL24 induced by histone deacetylase inhibition. Continuous and discontinuous sucrose gradient fractionations were performed to isolate 60S subunits and total polysomes respectively. Polyacrylamide gel electrophoresis was then performed on 60S and polysome samples and RPL24-containing bands were excised, trypsin digested, and subjected to mass spectrometry (LC-MS/MS) (FIG. 6a). Among several detected acetylated RPL24 peptides, two were increased by TSA treatment; TDGKacVFQFLNAK (acetyl-K27) (SEQ ID NO:1) and AITGASLADIM*AKacR (acetyl-K93) (SEQ ID NO:2), where the internal lysines in both peptides are N-acetylated (Kac). As the MS experiments of the 60S polysome were performed after in-gel digestion the methionine residue of the second peptide was predominantly oxidized (M*=M+16), as commonly observed during SDS PAGE processing. In independent, in-solution digestion experiments, the corresponding non-oxidized form of acetylated peptide AITGASLADIMAKacR (SEQ ID NO:3) with correlating MS/MS fragmentation pattern was identified. Representative spectra are shown for TDGKacVFQFLNAK (acetyl-K27) (SEQ ID NO:1) and AITGASLADIM*AKacR (acetyl-K93) (SEQ ID NO:2)) (FIG. 11a,b). In 3 biological replicate experiments, the amount of K27-acetylated RPL24, normalized to total protein concentration within the 60S subunit, was increased at least 2-fold within 2 h of TSA treatment. […] Given the proximity of the T. thermophilia RPL24 K26 site (that resides in a homologous region to human K27) to eIF6 (FIG. 7a), these findings implicate involvement of the TSA induced acetylation of RPL24 at K27 in preventing 40S-60S subunit joining and 60S retention of eIF6.
To prepare polysome samples for mass spectrometry, cells are treated with a histone deacetylase inhibitor and polysome pellets are prepared using a discontinuous sucrose gradient as described above. Protein concentration is determined using the Pierce BCA Protein Assay Kit (Thermo Scientific) and equal amount of protein are trypsin digested. Acetyl-lysine immunoprecipitations are carried out on resultant peptides using an antibody from Cell Signaling Technology. Acetyl-proteins are then eluted, extracted, and desalted.
To determine the acetylation status of 60S subunit proteins, cells are treated with histone deacetylase inhibitor and polysome profiles are performed as described above. The four fractions representing the 60S subunit are identified via western blots for Rack1 and RPL24. […]
Three biological replicates of polysome or 60S samples are then analyzed by LC-MS/MS using a quadrupole time-of-flight (QqTOF) TripleTOF 5600 mass spectrometer (AB SCIEX, Dublin, Calif.) coupled to an Eksigent (Dublin, Calif.) nanoLC Ultra, 2D plus. […]

The structures appear in SMILES notation.

With `CC(/C=C/C(=O)NO)=C\[C@@H](C)C(=O)c1ccc(N(C)C)cc1` [TSA, trichostatin-A], the “number of ribosomal proteins with at least a two-fold induction in acetylation” value with ribosomal proteins is given as 15. In addition, in the data set on RPL24, the “RPL24 K93 acetylation within the 60S subunits” value was “not significantly changed”, the “induction of K93 acetylation within RPL24 associated with polysomes” value came to 2.5 fold and the “induction of RPL24 K27 acetylation within polysomes” value is listed as “no significant induction”. The “increase of K27-acetylated RPL24 within the 60S subunit, normalized to total protein” value in the data set on RPL24 (3 biological replicates) is recorded as “at least 2 fold”.
